# Values quoted from earlier work in patent publication US11266683B2, “Antimicrobial and cleansing composition consisting of a polymeric biguanide and EDTA” (priority 2016, dated 2022).
# Where two headings read alike, the source gives them in different places.
# Key:
# [1] = system: S. aureus
# [2] = system: fibroblasts
Compound,risk of the bacterium developing resistance [1],effect on fibroblasts ([2]; at higher concentration),effect on fibroblasts ([2]; at lower concentration)
polyhexamethylene biguanide [PHMB],very low,,
[H]/N=C(\N/C(=N/[H])NCCCCCCNC(=N)NC(=N)Nc1ccc(Cl)cc1)Nc1ccc(Cl)cc1 [chlorhexidine],,causes necrosis,induces apoptosis
